Test results as given in publication PMC10145367, “Acute and Transgenerational Effects of Non-Steroidal Anti-Inflammatory Drugs on Daphnia magna” (Toxics, 2023).
Values after ≈ are worked out from the molar mass of the structure shown. Read-outs that look alike come from different tables or passages of the source.

What was measured:
[1] = test system: alkaline phosphatase (ALP); design: method as in PMID 36835510; conditions: chronic exposure of daphnids; ref [30]; cited from earlier work
peptidase (PEP) [2] = conditions: cited from earlier work
Daphnia magna [3] = conditions: cited from earlier work
acid phosphatase (ACP) [4] = test system: acid phosphatase (ACP); design: method as in PMID 36835510; conditions: chronic exposure of daphnids; ref [30]; cited from earlier work
Daphnia magna [5] = experiment: Feeding assay (ingestion of fluorescent microparticles); format: in vivo; conditions: neonates, 1 mg/L for 24 h
Experimental: After 24 h, twenty […] transferred in a 12-well plate with 6 mL OECD containing the carboxylate-modified polystyrene, fluorescent red microparticles (2.0 μm mean particle size) at a concentration of 13 mg/L. The animals were exposed to the microplastic for up to 90 min, and media was collected every 15 min to estimate the removed microparticles by fluorescence at Ex 560 Em 590 nm using a TECAN plate reader. The concentration of microparticles in the media was optimized to ensure an excess of microparticles for the accurate quantification of ingestion. Furthermore, we have extensively tested these particles, which show no toxicity to the […] for the short exposure periods used. We performed control experiments with neonates, as they would be more sensitive, for even up to 10 h to microplastics at even higher concentrations (up to 52 mg/L), and all animals from all experiments following the feeding assay were alive and healthy. Fluorescence was expressed to the amount of ingested microparticles using a standard curve. To confirm the ingestion of microparticles in the gut of […], animals were imaged with a stereoscope and fluorescence microscopy using the TRITC filter for carboxyl functionalized particles. […] The animals were fed daily with 2 mL of fresh algae (Chlamydomonas reinhardtii) with a concentration of 6 million cells/mL. […]

GST [6] = test system: GST; design: method as in PMID 32259738; conditions: exposure for 14 days; ref [71]; cited from earlier work
[7] = cited from earlier work
GST [8] = conditions: 28-day exposure to 25 mg/L; ref [53]; cited from earlier work
acid phosphatase (ACP) [9] = experiment: Acid phosphatase activity in daphnid homogenate after chronic/transgenerational exposure; format: in vivo, Daphnia magna
lipase (LIP) = experiment: Lipase activity in daphnid homogenate after chronic/transgenerational exposure; format: in vivo, Daphnia magna
Daphnia magna [10] = experiment: Acute toxicity (immobilization) of neonates, 24 h toxicity curves; conditions: for EC50: Daphnia magna, 24 h; for EC1 / EC5 / EC10 / EC20: neonates, 24 h exposure, immobilization
D. magna [11] = conditions: ref [21], cited from earlier work
peptidase (PEP) [12] = experiment: Peptidase activity in daphnid homogenate after chronic/transgenerational exposure; format: in vivo, Daphnia magna
[13] = test system: glutathione-S-transferase (GST)
Experimental: (§1) Chronic exposure was performed at 1 mg/L of each NSAID and their 1:1 mixture separately, which was selected as a non-lethal concentration. For enzyme activities in chronic and transgenerational exposures, neonates were cultured for two consecutive generations and following a 21-day recovery period (Figure 1B). […] Media and NSAIDs were renewed twice a week. Although the concentration of NSAIDs was not measured throughout the exposure, their renewal twice a week was sufficient to exert their action. […] Daphnids were fed daily with 2 mL fresh algae (C. reinhardtii) with a concentration of 6 million cells/mL, and a seaweed extract (Ascophylum nodosum) was supplemented only on the days of media change.
(§2) Five 7, 14, and 21-day-old animals were used per biological replicate and homogenized in 0.5 mL ddH2O using a pestle homogenizer. The homogenate was cleared by centrifugation (12,000× g for 5 min at 5 °C), and the clear supernatant was collected and used to assess the enzyme activity as described elsewhere. 200 μL appropriately diluted sample in buffer was assessed for the activity of phosphatases (in 100 mM acetic acid pH 4.5 for acid phosphatase or 100 mM boric acid pH 9.8 for alkaline phosphatase) using 50 μL of the substrate p-nitrophenyl phosphate (8 mM) and monitoring the production of p-nitrophenol at 405 nm after its alkalinization (with 50 μL 4M NaOH). In addition, the activities of β-galactosidase and lipase were measured with the same experimental conditions by the generation of nitrophenol from the catalysis of o-nitrophenyl-β-galactoside or p-nitrophenyl butyrate, respectively, but in phosphate buffer pH 7.2. Glutathione-S-transferase (GST) activity was assessed by the reaction of reduced glutathione with 1-chloro-2,4-dinitrobenzene. 200 μL appropriately diluted sample in phosphate buffer pH 7.2 was mixed with 50 μL 2 mM CDNB, and 6 mM reduced glutathione, and the formation of the complex was measured continuously at 340 nm and converted to units of activity with the extinction coefficient. Protein was quantified by an ultrasensitive Bradford protocol to normalize the results.

[14] = test system: alkaline phosphatase (ALP)
Experimental: as §1, §2

β-galactosidase (β-gal) = test system: β-galactosidase (β-gal)
Experimental: as §1, §2

Oryzias latipes = test system: Oryzias latipes; design: method as in PMID 27234514, PMID 19336980; conditions: after 24 h of exposure; ref [3],[5]; cited from earlier work
Thamnocephalus platyurus = conditions: after 24 h of exposure; ref [3],[5]; cited from earlier work
D. magna [15] = test system: D. magna; design: method as in PMID 27234514, PMID 19336980; conditions: after 24 h of exposure; ref [3],[5]; cited from earlier work
[16] = test system: male zebrafish (Danio rerio); design: method as in PMID 29027214; conditions: 96 h, ref [13]; cited from earlier work
patients = test system: patients; design: method as in PMID 26865183; conditions: patients receiving it; ref [11]; cited from earlier work
[17] = test system: glutathione-S-transferase (GST); design: method as in PMID 32806449; conditions: intermediate concentrations (1.2 and 6 μg/L); ref [67]; cited from earlier work
[18] = 1 mg/L, age 7 days, first generation
[19] = 1 mg/L, age 21 days, 2nd generation
[20] = 1 mg/L, age 21 days, first generation
[21] = age 21 days, 3rd generation recovery in clean OECD media after two generations at 1 mg/L
[22] = 1 mg/L, age 14 days, first generation

O=C(O)Cc1ccccc1Nc1c(Cl)cccc1Cl [Diclofenac]
effect on activity of ALP [1]: reduced | effect on activity of PEP (peptidase (PEP) [2]; chronic exposure of daphnids, ref [30]): increasing | effect on feeding rate (Daphnia magna [3]; neonates of D. magna, ref [67],[68]): reduce the feeding rate | effect on activity of ACP (acid phosphatase (ACP) [4]): reduced

CC(C)Cc1ccc(C(C)C(=O)O)cc1 (stereo not drawn) [Ibuprofen]
reduction of feeding rate compared to DMSO (Daphnia magna [5]): 30% | effect on activity of GST (GST [6]): reduced the activity of GST | average strength maintained ([7]; for 5 months, ref [39]): > 90% | time stable ([7]; room temperature, ref [37],[38]): 15 days | effect on activity of GST (GST [8]): increase in the activity of GST | ACP enzyme activity (acid phosphatase (ACP) [9]; [18]): 8.14 ± 0.33 units/mg protein | ACP enzyme activity (acid phosphatase (ACP) [9]; [19]): 2.78 ± 0.21 units/mg protein | ACP enzyme activity (acid phosphatase (ACP) [9]; [20]): 3.09 ± 0.04 units/mg protein | ACP enzyme activity (acid phosphatase (ACP) [9]; [21]): 3.24 ± 0.47 units/mg protein | LIP enzyme activity (lipase (LIP); [18]): 123.76 ± 2.26 units/mg protein | change of LIP activity compared with DMSO (lipase (LIP); [18]): −10% | LIP enzyme activity (lipase (LIP); [22]): 148.12 ± 37.62 units/mg protein | LIP enzyme activity (lipase (LIP); [19]): 47.53 ± 1.66 units/mg protein | change of LIP activity compared with DMSO (lipase (LIP); [19]): −28% | LIP enzyme activity (lipase (LIP); [20]): 78.43 ± 4.27 units/mg protein | LIP enzyme activity (lipase (LIP); [21]): 53.32 ± 6.51 units/mg protein | EC50 (Daphnia magna [10]): 17.8 µg/mL (≈ 86.3 µM) | EC1 (Daphnia magna [10]): 8.62 mg/L | EC5 (Daphnia magna [10]): 11.19 mg/L | EC10 (Daphnia magna [10]): 12.59 µg/mL (≈ 61 µM) | EC20 (Daphnia magna [10]): 14.3 µg/mL (≈ 69.3 µM) | survival (D. magna [11]; neonates exposed to 20 mg/L and 40 mg/L for 14 days): unaffected | reduction of survival (D. magna [11]; neonates exposed to 80 mg/L for 14 days): 19% | PEP enzyme activity (peptidase (PEP) [12]; [18]): 29.54 ± 7.34 units/mg protein | PEP enzyme activity (peptidase (PEP) [12]; [22]): 1.93 ± 0.27 units/mg protein | PEP enzyme activity (peptidase (PEP) [12]; [20]): 10.52 ± 1.39 units/mg protein | PEP enzyme activity (peptidase (PEP) [12]; [21]): 4.61 ± 0.35 units/mg protein | GST enzyme activity [13, 18]: 95.6 ± 10 munits/mg protein | GST enzyme activity [13, 22]: 151.7 ± 11.7 munits/mg protein | GST enzyme activity [13, 19]: 123.5 ± 2.1 munits/mg protein | change of GST activity compared with DMSO [13, 19]: +18% | GST enzyme activity [13, 20]: 67.6 ± 4.4 munits/mg protein | ALP enzyme activity [14, 18]: 6.55 ± 0.26 units/mg protein | ALP enzyme activity [14, 22]: 2.63 ± 0.14 units/mg protein | ALP enzyme activity [14, 19]: 3.27 ± 0.15 units/mg protein | change of ALP activity compared with DMSO [14, 19]: −10% | change of β-gal activity compared with DMSO (β-galactosidase (β-gal); [18]): −17% | β-gal enzyme activity (β-galactosidase (β-gal); [18]): 1.26 ± 0.06 units/mg protein | β-gal enzyme activity (β-galactosidase (β-gal); [22]): 2.08 ± 0.75 units/mg protein | change of β-gal activity compared with DMSO (β-galactosidase (β-gal); [19]): −17% | β-gal enzyme activity (β-galactosidase (β-gal); [19]): 3.93 ± 0.22 units/mg protein | β-gal enzyme activity (β-galactosidase (β-gal); [20]): 5.13 ± 0.25 units/mg protein

COc1ccc2c(c1)c(CC(=O)O)c(C)n2C(=O)c1ccc(Cl)cc1 [Indomethacin]
lethal concentration (Oryzias latipes): 81.92 mg/L | reduction of feeding rate compared to DMSO (Daphnia magna [5]): 35% | lethal concentration (Thamnocephalus platyurus): 16.14 mg/L | ACP enzyme activity (acid phosphatase (ACP) [9]; [18]): 6.82 ± 0.51 units/mg protein | ACP enzyme activity (acid phosphatase (ACP) [9]; [22]): 6.02 ± 0.71 units/mg protein | ACP enzyme activity (acid phosphatase (ACP) [9]; [19]): 2.67 ± 0.15 units/mg protein | ACP enzyme activity (acid phosphatase (ACP) [9]; [20]): 2.84 ± 0.13 units/mg protein | change of ACP activity compared with DMSO (acid phosphatase (ACP) [9]; [20]): −10% | ACP enzyme activity (acid phosphatase (ACP) [9]; [21]): 3.21 ± 0.28 units/mg protein | lethal concentration (D. magna [15]): 22.38 mg/L | LIP enzyme activity (lipase (LIP); [18]): 72.94 ± 11.09 units/mg protein | change of LIP activity compared with DMSO (lipase (LIP); [18]): −47% | LIP enzyme activity (lipase (LIP); [22]): 193.84 ± 25.81 units/mg protein | LIP enzyme activity (lipase (LIP); [19]): 56.41 ± 3.09 units/mg protein | change of LIP activity compared with DMSO (lipase (LIP); [19]): −15% | LIP enzyme activity (lipase (LIP); [20]): 90.86 ± 0.42 units/mg protein | LIP enzyme activity (lipase (LIP); [21]): 51.19 ± 2.04 units/mg protein | EC50 [16]: 76.30 µg/mL (≈ 213 µM) | EC50 (Daphnia magna [10]): 17.5 µg/mL (≈ 48.8 µM) | EC1 (Daphnia magna [10]): 6.61 mg/L | EC5 (Daphnia magna [10]): 9.37 mg/L | EC10 (Daphnia magna [10]): 10.97 µg/mL (≈ 30.7 µM) | EC20 (Daphnia magna [10]): 13.02 µg/mL (≈ 36.4 µM) | PEP enzyme activity (peptidase (PEP) [12]; [18]): 27.26 ± 5.01 units/mg protein | PEP enzyme activity (peptidase (PEP) [12]; [22]): 1.94 ± 0.06 units/mg protein | PEP enzyme activity (peptidase (PEP) [12]; [19]): 6.81 ± 0.26 units/mg protein | change of PEP activity compared with DMSO (peptidase (PEP) [12]; [19]): −14% | PEP enzyme activity (peptidase (PEP) [12]; [20]): 10.82 ± 0.6 units/mg protein | change of PEP activity compared with DMSO (peptidase (PEP) [12]; [20]): +16% | PEP enzyme activity (peptidase (PEP) [12]; [21]): 5.33 ± 0.49 units/mg protein | patients with adverse effects (patients): 30–60% | GST enzyme activity [13, 18]: 107.9 ± 11.6 munits/mg protein | GST enzyme activity [13, 22]: 144.7 ± 5.4 munits/mg protein | GST enzyme activity [13, 19]: 94.6 ± 2.9 munits/mg protein | change of GST activity compared with DMSO [13, 19]: −9% | GST enzyme activity [13, 20]: 52.3 ± 1.5 munits/mg protein | GST enzyme activity [13, 21]: 154.7 ± 4.2 munits/mg protein | ALP enzyme activity [14, 18]: 6.22 ± 0.21 units/mg protein | change of ALP activity compared with DMSO [14, 18]: −13% | ALP enzyme activity [14, 22]: 3.05 ± 0.29 units/mg protein | ALP enzyme activity [14, 19]: 3.8 ± 0.18 units/mg protein | ALP enzyme activity [14, 20]: 5.05 ± 0.17 units/mg protein | ALP enzyme activity [14, 21]: 4.16 ± 0.24 units/mg protein | change of β-gal activity compared with DMSO (β-galactosidase (β-gal); [18]): −40% | β-gal enzyme activity (β-galactosidase (β-gal); [18]): 0.91 ± 0.14 units/mg protein | β-gal enzyme activity (β-galactosidase (β-gal); [22]): 2.23 ± 0.39 units/mg protein | β-gal enzyme activity (β-galactosidase (β-gal); [19]): 4.7 ± 0.23 units/mg protein | change of β-gal activity compared with DMSO (β-galactosidase (β-gal); [20]): +11% | β-gal enzyme activity (β-galactosidase (β-gal); [20]): 5.93 ± 0.19 units/mg protein | β-gal enzyme activity (β-galactosidase (β-gal); [21]): 5.03 ± 0.44 units/mg protein

CC(=O)Oc1ccccc1C(=O)O [acetylsalicylic acid]
effect on activity of PEP (peptidase (PEP) [2]; acute exposure of daphnids, ref [28]): decreased

CC(C(=O)O)c1cccc(C(=O)c2ccccc2)c1 (stereo not drawn) [ketoprofen]
effect on feeding (Daphnia magna [3]; D5 daphnids, ref [67]): did not affect the feeding | effect on activity of GST [17]: increased the activity of GST
